Results on 28 molecules are retold here after patent publication US20110082130A1 (LIGAND PHARMACEUTICALS, INC., priority 2006, published 2011).

One test deals with T1, chimeric human H3 receptor (Homo sapiens, UniProt Q9Y5N1).
T1 construct: made in house; host or cells: Sf9 insect cells (baculovirus); P2 membrane preparation
T1 sequence (Q9Y5N1 with tags, fused parts or gaps): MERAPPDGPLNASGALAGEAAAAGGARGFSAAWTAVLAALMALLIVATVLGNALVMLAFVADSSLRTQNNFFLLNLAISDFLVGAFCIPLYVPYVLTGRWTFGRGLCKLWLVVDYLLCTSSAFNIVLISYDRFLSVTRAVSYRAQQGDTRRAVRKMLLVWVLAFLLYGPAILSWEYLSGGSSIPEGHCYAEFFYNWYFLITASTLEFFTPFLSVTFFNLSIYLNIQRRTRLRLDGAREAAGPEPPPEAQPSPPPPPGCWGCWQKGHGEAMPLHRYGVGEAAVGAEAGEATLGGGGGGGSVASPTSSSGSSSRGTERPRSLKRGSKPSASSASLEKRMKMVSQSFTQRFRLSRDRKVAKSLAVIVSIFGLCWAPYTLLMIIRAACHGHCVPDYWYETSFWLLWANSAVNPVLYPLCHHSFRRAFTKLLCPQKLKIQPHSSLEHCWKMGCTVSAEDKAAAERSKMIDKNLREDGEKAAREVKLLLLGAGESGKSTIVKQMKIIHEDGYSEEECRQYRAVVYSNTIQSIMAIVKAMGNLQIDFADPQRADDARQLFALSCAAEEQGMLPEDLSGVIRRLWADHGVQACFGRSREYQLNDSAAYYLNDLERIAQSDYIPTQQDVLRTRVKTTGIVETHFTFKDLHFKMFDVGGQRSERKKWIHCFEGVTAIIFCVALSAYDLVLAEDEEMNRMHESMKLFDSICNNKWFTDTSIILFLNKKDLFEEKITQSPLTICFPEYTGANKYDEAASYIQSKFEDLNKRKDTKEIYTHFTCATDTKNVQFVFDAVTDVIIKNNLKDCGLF
In words: Chimeric human H3 receptor screening GTP binding assay (inhibition of histamine-stimulated GTP-gamma35S binding, Example 8). In kind it is biochemical. The conditions noted are these: 4 μM of the compound, 1 μM histamine, "†" in Ki of Table II, read-out: percent inhibition of the signal obtained with 1 μM histamine. On the procedure: This Example illustrates a representative screening assay for evaluating inhibition of histamine-stimulated GTP-gamma^35S binding. Such GTP binding activity can be used to identify H3 antagonists and inverse agonists. A compound analyzed in this assay is referred to herein as a “test compound,” and the initial identification of antagonists and inverse agonists is performed using a test compound concentration of 4 μM.
Four independent baculoviral stocks (one directing the expression of the chimeric human H3 receptor and three directing the expression of each of the three subunits of a heterotrimeric G-protein) are used to infect a culture of Sf9 cells as described above. P2 membranes are prepared as described above, and are resuspended by Dounce homogenization (tight pestle) in GTP binding assay buffer (50 mM Tris pH 7.4, 120 mM NaCl, 5 mM MgCl2, 2 mM EGTA, 1 mg/ml BSA, 0.2 mg/ml bacitracin, 0.02 mg/ml aprotinin, 0.01 mg/ml saponin, 10 μM GDP) and added to assay tubes at a concentration of 35 μg protein/reaction tube. Non-radiolabeled test compounds are added to separate reactions at a concentration of 4 μM along with 1 μM histamine (agonist). Reactions are initiated by the addition of […] GTP-gamma^35S with a final assay volume of 0.20 ml.
After a 60-min incubation at room temperature, reactions are terminated by vacuum filtration over GF/C filters (pre-soaked in 50 mM Tris pH 7.4, 120 mM NaCl plus 0.1% BSA) followed by washing with ice-cold buffer (50 mM Tris pH 7.4, 120 mM NaCl). The amount of receptor-bound (and thereby membrane-bound) GTP-gamma^35S is determined by measuring the bound radioactivity, preferably by liquid scintillation spectrometry of the washed filters. Non-specific binding is determined using 10 uM GTP-gammaS and typically represents less than 5 percent of total binding. After subtraction of non-specific binding, data is expressed as percent inhibition of 1 μM histamine signal.
Neutral antagonists are those test compounds that reduce the histamine-stimulated GTP binding activity towards, but not below, baseline levels. In contrast, in the absence of added histamine, inverse agonists reduce the GTP binding activity of the receptor-containing membranes below baseline. Any test compound that elevates GTP binding activity above baseline in the absence of added histamine in this assay is defined as having agonist activity.
(GTPγS is a poorly hydrolysed GTP analogue; its binding reports G protein activation.)
As for `O=C(CN1CCc2cc(-c3ccc(F)cc3)ccc2C1)N1CCN(C2CCC2)CC1` [Compound 407, 2-[2-(4-cyclobutylpiperazin-1-yl)-2-oxoethyl]-6-(4-fluorophenyl)-1,2,3,4-tetrahydroisoquinoline], the inhibition at 4 µM was not below 90%.
On the same count and under the same terms, for `O=C(CN1CCc2cc(-c3cccc4c3oc3ccccc34)ccc2C1)N1CCN(C2CCCCC2)CC1` [Compound 384, 2-[2-(4-cyclohexylpiperazin-1-yl)-2-oxoethyl]-6-dibenzo[b,d]furan-4-yl-1,2,3,4-tetrahydroisoquinoline] the value was not below 90%.
On the same count and under the same terms, for `Cc1cc(C)cc(-c2ccc3c(c2)CCN(CC(=O)N2CCN(C4CCCCC4)CC2)C3)c1` [Compound 457, 2-[2-(4-cyclohexylpiperazin-1-yl)-2-oxoethyl]-6-(3,5-dimethylphenyl)-1,2,3,4-tetrahydroisoquinoline] the value was not below 90%.
On the same count and under the same terms, for `CC(C)(C)c1ccc(-c2ccc3c(c2)CCN(CC(=O)N2CCN(C4CCCCC4)CC2)C3)cc1` [Compound 473, 6-(4-tert-butylphenyl)-2-[2-(4-cyclohexylpiperazin-1-yl)-2-oxoethyl]-1,2,3,4-tetrahydroisoquinoline] the value was not below 90%; for `Cc1cc(-c2ccc3c(c2)CCN(CC(=O)N2CCN(C4CCCC4)CC2)C3)ccc1F` [Compound 430, 2-[2-(4-cyclopentylpiperazin-1-yl)-2-oxoethyl]-6-(4-fluoro-3-methylphenyl)-1,2,3,4-tetrahydroisoquinoline], not below 90%.
For `CC(C)c1ccc(-c2ccc3c(c2)CCN(CC(=O)N2CCN(C4CCCC4)CC2)C3)cc1` [Compound 444, 2-[2-(4-cyclopentylpiperazin-1-yl)-2-oxoethyl]-6-(4-isopropylphenyl)-1,2,3,4-tetrahydroisoquinoline], the inhibition at 4 µM is not below 90%.
The same measure, in the same setting: for `Cc1cc(C)cc(-c2ccc3c(c2)CCN(CC(=O)N2CCN(C4CCC4)CC2)C3)c1` [Compound 455, 2-[2-(4-cyclobutylpiperazin-1-yl)-2-oxoethyl]-6-(3,5-dimethylphenyl)-1,2,3,4-tetrahydroisoquinoline] the value was not below 90%.

Staying with this test, now noted: Table II "Ki", symbol †, 4 μM of the compound, 1 μM histamine, read-out: percent inhibition of the signal obtained with 1 μM histamine.
`O=C(CN1CCc2cc(-c3cc(Cl)cc(Cl)c3)ccc2C1)N1CCN(C2CCC2)CC1` [Compound 592, 2-[2-(4-cyclobutylpiperazin-1-yl)-2-oxoethyl]-6-(3,5-dichlorophenyl)-1,2,3,4-tetrahydroisoquinoline]: the inhibition at 4 µM was not below 90%.
The same measure, in the same setting: for `O=C(CN1CCc2cc(-c3cc(F)cc(F)c3)ccc2C1)N1CCN(C2CCCCC2)CC1` [Compound 598, 2-[2-(4-cyclohexylpiperazin-1-yl)-2-oxoethyl]-6-(3,5-difluorophenyl)-1,2,3,4-tetrahydroisoquinoline] the value was not below 90%; for `COc1ccc(Cl)cc1-c1ccc2c(c1)CCN(CC(=O)N1CCN(C3CCCCC3)CC1)C2` [Compound 558, 6-(5-chloro-2-methoxyphenyl)-2-[2-(4-cyclohexylpiperazin-1-yl)-2-oxoethyl]-1,2,3,4-tetrahydroisoquinoline], not below 90%.
For the molecule `COc1ccc(-c2ccc(-c3ccc4c(c3)CCN(CC(=O)N3CCN(C5CCCC5)CC3)C4)cc2)cc1` [Compound 499, 2-[2-(4-cyclopentylpiperazin-1-yl)-2-oxoethyl]-6-(4′-methoxybiphenyl-4-yl)-1,2,3,4-tetrahydroisoquinoline], the inhibition at 4 µM is not below 90%.
Take `CC(C)CN1CCN(C(=O)CN2CCc3cc(-c4cncnc4)ccc3C2)CC1` [Compound 605, 2-[2-(4-isobutylpiperazin-1-yl)-2-oxoethyl]-6-pyrimidin-5-yl-1,2,3,4-tetrahydroisoquinoline]: the inhibition at 4 µM is not below 90%.
Regarding `COc1ccc(C(C)C)cc1-c1ccc2c(c1)CCN(CC(=O)N1CCN(C3CCCCC3)CC1)C2` [Compound 556, 2-[2-(4-cyclohexylpiperazin-1-yl)-2-oxoethyl]-6-(5-isopropyl-2-methoxyphenyl)-1,2,3,4-tetrahydroisoquinoline], the inhibition at 4 µM is not below 90%.
Still for that read-out and setting: to `CCOc1cccc(-c2ccc3c(c2)CCN(CC(=O)N2CCN(C(C)C)CC2)C3)c1` [Compound 485, 6-(3-ethoxyphenyl)-2-[2-(4-isopropylpiperazin-1-yl)-2-oxoethyl]-1,2,3,4-tetrahydroisoquinoline] belongs not below 90%.
Still for that read-out and setting: to `COc1ccc(C)cc1-c1ccc2c(c1)CCN(CC(=O)N1CCN(C3CCCCC3)CC1)C2` [Compound 574, 2-[2-(4-cyclohexylpiperazin-1-yl)-2-oxoethyl]-6-(2-methoxy-5-methylphenyl)-1,2,3,4-tetrahydroisoquinoline] belongs not below 90%; to `O=C(CN1CCc2cc(-c3ccc(F)cc3F)ccc2C1)N1CCN(C2CCC2)CC1` [Compound 586, 2-[2-(4-cyclobutylpiperazin-1-yl)-2-oxoethyl]-6-(2,4-difluorophenyl)-1,2,3,4-tetrahydroisoquinoline], not below 90%.
The same measure, in the same setting: for `CC(C)Oc1cccc(-c2ccc3c(c2)CCN(CC(=O)N2CCN(C(C)C)CC2)C3)c1` [Compound 515, 6-(3-isopropoxyphenyl)-2-[2-(4-isopropylpiperazin-1-yl)-2-oxoethyl]-1,2,3,4-tetrahydroisoquinoline] the value was not below 90%; for `O=C(CN1CCc2cc(-c3cccc(OC(F)(F)F)c3)ccc2C1)N1CCN(C2CCC2)CC1` [Compound 490, 2-[2-(4-cyclobutylpiperazin-1-yl)-2-oxoethyl]-6-[3-(trifluoromethoxy)phenyl]-1,2,3,4-tetrahydroisoquinoline], not below 90%.
As for `CCOc1ccc(-c2ccc3c(c2)CCN(CC(=O)N2CCN(C(C)C)CC2)C3)cc1` [Compound 531, 6-(4-ethoxyphenyl)-2-[2-(4-isopropylpiperazin-1-yl)-2-oxoethyl]-1,2,3,4-tetrahydroisoquinoline], the inhibition at 4 µM was not below 90%.
Still for that read-out and setting: for `COc1ccc2cc(-c3ccc4c(c3)CCN(CC(=O)N3CCN(C5CCCC5)CC3)C4)ccc2c1` [Compound 510, 2-[2-(4-cyclopentylpiperazin-1-yl)-2-oxoethyl]-6-(6-methoxy-2-naphthyl)-1,2,3,4-tetrahydroisoquinoline] the value was not below 90%.
Same read-out and setting: to `CC(C)N1CCN(C(=O)CN2CCc3cc(-c4ccc(N(C)C)cc4)ccc3C2)CC1` [Compound 535, 4-{2-[2-(4-isopropylpiperazin-1-yl)-2-oxoethyl]-1,2,3,4-tetrahydroisoquinolin-6-yl}-N,N-dimethylaniline] belongs not below 90%; to `COc1ccc(F)cc1-c1ccc2c(c1)CCN(CC(=O)N1CCN(C3CCC3)CC1)C2` [Compound 570, 2-[2-(4-cyclobutylpiperazin-1-yl)-2-oxoethyl]-6-(5-fluoro-2-methoxyphenyl)-1,2,3,4-tetrahydroisoquinoline], not below 90%; to `COc1ccc(C(C)C)cc1-c1ccc2c(c1)CCN(CC(=O)N1CCN(C3CCC3)CC1)C2` [Compound 554, 2-[2-(4-cyclobutylpiperazin-1-yl)-2-oxoethyl]-6-(5-isopropyl-2-methoxyphenyl)-1,2,3,4-tetrahydroisoquinoline], not below 90%.
Still for that read-out and setting: to `O=C(CN1CCc2cc(-c3ccc(Cl)c(Cl)c3)ccc2C1)N1CCN(C2CCCC2)CC1` [Compound 595, 2-[2-(4-cyclopentylpiperazin-1-yl)-2-oxoethyl]-6-(3,4-dichlorophenyl)-1,2,3,4-tetrahydroisoquinoline] belongs not below 90%; to `Cc1cc(F)ccc1-c1ccc2c(c1)CCN(CC(=O)N1CCN(C3CCC3)CC1)C2` [Compound 626, 2-[2-(4-cyclobutylpiperazin-1-yl)-2-oxoethyl]-6-(4-fluoro-2-methylphenyl)-1,2,3,4-tetrahydroisoquinoline], not below 90%; to `O=C(CN1CCc2cc(-c3ccc(F)c(F)c3)ccc2C1)N1CCN(C2CCCCC2)CC1` [Compound 591, 2-[2-(4-cyclohexylpiperazin-1-yl)-2-oxoethyl]-6-(3,4-difluorophenyl)-1,2,3,4-tetrahydroisoquinoline], not below 90%.
For the molecule `COc1ccc2cc(-c3ccc4c(c3)CCN(CC(=O)N3CCN(C5CCCCC5)CC3)C4)ccc2c1` [Compound 511, 2-[2-(4-cyclohexylpiperazin-1-yl)-2-oxoethyl]-6-(6-methoxy-2-naphthyl)-1,2,3,4-tetrahydroisoquinoline], the inhibition at 4 µM was not below 90%.
The same measure, in the same setting: for `COCC(C)Nc1ccc2c(n1)CCN(CC(=O)N1CCN(C3CCC3)CC1)C2` (stereo not shown) [Compound 665, 6-[2-(4-cyclobutylpiperazin-1-yl)-2-oxoethyl]-N-(2-methoxy-1-methylethyl)-5,6,7,8-tetrahydro-1,6-naphthyridin-2-amine] the value was not below 90%.

By inhibition is commonly meant how much of the control response was suppressed.
